Assay results reported in the supplement of paper PMC10307832.

Legend:
Test in all cases: relative viability (nuclei count vs DMSO), 5 days (fraction); higher = more cells survive
GSK-J4 + Palbociclib = compound: CCOC(=O)CCNc1cc(N2CCc3ccccc3CC2)nc(-c2ccccn2)n1 [GSK-J4] + CC(=O)c1c(C)c2cnc(Nc3ccc(N4CCNCC4)cn3)nc2n(C2CCCC2)c1=O [Palbociclib] (partner 0.5 µM)
How it was run: (§1)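 For relative viability, nuclei counts in treated wells were divided by those in vehicle wells. Lung cancer cell lines had been pin-tool dosed in 1536-well plates the day after seeding and cultured for 5 days, then fixed and stained in one step (final 0.05% Triton X-100, 1% formaldehyde, 1 ug/ml Hoechst) and imaged at 4×. Doses were one drug alone or a fixed anchor-drug dose plus five library-drug doses (not always all listed) in √10 steps, and values are duplicate-plate medians.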

AZ3146 + Bortezomib = compound: CN1CCC(CC1)OC2=CC(=C(C=C2)NC3=NC=C4C(=N3)N(C(=O)N4C)C5CCCC5)OC [AZ3146] + CC(C)C[C@H](NC(=O)[C@H](Cc1ccccc1)NC(=O)c1cnccn1)B(O)O [Bortezomib] (partner 0.002 µM)
How it was run: as §1

GSK-J4 + Crizotinib = compound: CCOC(=O)CCNc1cc(N2CCc3ccccc3CC2)nc(-c2ccccn2)n1 [GSK-J4] + C[C@@H](Oc1cc(-c2cnn(C3CCNCC3)c2)cnc1N)c1c(Cl)ccc(F)c1Cl [Crizotinib] (partner 1 µM)
How it was run: as §1

AZ3146 + Vorinostat = compound: CN1CCC(CC1)OC2=CC(=C(C=C2)NC3=NC=C4C(=N3)N(C(=O)N4C)C5CCCC5)OC [AZ3146] + O=C(CCCCCCC(=O)Nc1ccccc1)NO [Vorinostat] (partner 1 µM)
How it was run: as §1

Cell Line	relative viability (GSK-J4 + Palbociclib; first compound 0.5 µM)	relative viability (GSK-J4 + Palbociclib; first compound 1.581 µM)	relative viability (GSK-J4 + Palbociclib; first compound 5 µM)	relative viability (GSK-J4 + Palbociclib; first compound 15.81 µM)	relative viability (GSK-J4 + Palbociclib; first compound 50 µM)	relative viability (AZ3146 + Bortezomib; first compound 0.08 µM)	relative viability (AZ3146 + Bortezomib; first compound 0.253 µM)	relative viability (AZ3146 + Bortezomib; first compound 0.8 µM)	relative viability (AZ3146 + Bortezomib; first compound 2.53 µM)	relative viability (AZ3146 + Bortezomib; first compound 8 µM)	relative viability (GSK-J4 + Crizotinib; first compound 0.5 µM)	relative viability (GSK-J4 + Crizotinib; first compound 1.581 µM)	relative viability (GSK-J4 + Crizotinib; first compound 5 µM)	relative viability (GSK-J4 + Crizotinib; first compound 15.81 µM)	relative viability (GSK-J4 + Crizotinib; first compound 50 µM)	relative viability (AZ3146 + Vorinostat; first compound 0.08 µM)	relative viability (AZ3146 + Vorinostat; first compound 0.253 µM)	relative viability (AZ3146 + Vorinostat; first compound 0.8 µM)	relative viability (AZ3146 + Vorinostat; first compound 2.53 µM)	relative viability (AZ3146 + Vorinostat; first compound 8 µM)
201T	0.359	0.358	0.361	0.326	0.352	1.1	1.07	1.11	1.16	1.12	1.01	1.07	1.01	1.02	0.996	0.948	0.928	0.917	1.05	0.894
A549	–	–	–	–	–	–	–	–	–	–	0.691	0.669	–	0.536	0.605	–	–	–	–	–
A-427	0.507	0.439	–	0.511	0.443	0.995	1.06	0.94	1.07	0.875	0.844	–	0.852	0.591	0.362	0.763	0.881	0.833	0.809	0.593
ABC-1	0.599	0.589	0.605	0.691	0.432	0.28	0.398	0.247	0.239	0.356	1.03	0.953	1.17	0.81	0.343	0.618	1.02	1.53	1.2	1.16
BEN	0.476	0.314	0.465	0.419	0.457	–	0.588	0.752	0.762	0.726	0.865	0.795	–	0.759	0.688	–	0.54	0.608	0.558	0.588
CAL-12T	0.46	0.342	0.442	0.482	0.493	1.28	–	0.897	1.08	0.644	0.522	0.512	0.341	0.479	0.589	0.695	0.743	0.832	0.778	0.553
COR-L23	0.274	0.233	–	0.251	0.258	0.912	1.17	0.991	0.984	0.886	0.671	0.567	–	0.639	0.518	0.38	0.536	0.374	0.415	0.313
COR-L 105	0.428	–	0.342	0.415	0.396	0.677	0.896	0.78	0.554	0.294	0.843	0.7	0.547	0.749	0.695	0.819	0.887	0.902	0.879	0.487
Calu-6	–	–	–	–	–	0.975	1.08	0.999	0.938	0.57	0.726	0.618	0.828	0.76	0.685	–	–	–	–	–
ChaGo-K-1	0.934	–	0.967	0.889	0.845	0.93	0.837	0.932	0.961	0.738	1.03	–	0.879	1.12	0.926	0.711	0.691	0.703	0.718	0.521
EBC-1	–	–	–	–	–	0.549	0.578	0.541	0.521	0.279	0.191	0.206	0.192	0.212	0.19	–	–	–	–	–
EKVX	0.352	–	0.365	0.352	0.344	1.03	1.07	1.11	1.04	1.26	0.755	0.883	0.927	0.91	0.889	0.608	0.81	0.818	0.885	0.681
EMC-BAC-2	0.505	0.474	–	0.465	0.471	1.03	1.03	1.19	1.12	1.15	0.712	0.695	0.726	0.743	0.733	–	–	0.519	0.534	0.368
EPLC-272H	0.342	0.327	0.371	0.309	0.33	0.754	0.968	0.879	0.97	1.03	0.956	–	1.14	0.816	0.915	0.297	0.52	0.299	0.499	0.329
H3255	0.325	0.299	0.257	0.279	0.284	0.757	0.627	0.825	0.835	0.792	0.869	0.767	0.855	0.764	0.642	0.737	0.746	0.856	0.887	0.897
HARA	0.242	0.247	0.23	0.234	0.3	1.04	1.15	1.15	1.14	0.533	0.975	0.962	–	0.942	0.662	0.495	0.561	0.559	0.67	0.423
HCC-15	0.712	0.528	0.701	0.694	0.488	1.01	1.08	1.02	1.12	1.04	0.755	0.733	0.778	0.757	0.536	0.779	0.796	0.885	0.887	0.687
HCC-44	0.933	0.916	0.989	0.979	1.03	0.875	0.908	0.881	0.909	0.884	0.759	0.705	0.696	0.825	0.755	1.07	1.07	1.05	1.12	1.13
HCC-78	0.498	–	0.48	0.435	0.486	–	0.471	0.271	0.558	0.447	0.346	0.297	0.378	–	0.354	–	0.496	0.435	0.354	0.471
